Among the data in US10688093B2, “Methods, compositions, and uses of novel Fyn kinase inhibitors” (priority 2015, dated 2020) are IC50 values, retold here.

full-length recombinant human FYN A, sequence (P06241 whole entry): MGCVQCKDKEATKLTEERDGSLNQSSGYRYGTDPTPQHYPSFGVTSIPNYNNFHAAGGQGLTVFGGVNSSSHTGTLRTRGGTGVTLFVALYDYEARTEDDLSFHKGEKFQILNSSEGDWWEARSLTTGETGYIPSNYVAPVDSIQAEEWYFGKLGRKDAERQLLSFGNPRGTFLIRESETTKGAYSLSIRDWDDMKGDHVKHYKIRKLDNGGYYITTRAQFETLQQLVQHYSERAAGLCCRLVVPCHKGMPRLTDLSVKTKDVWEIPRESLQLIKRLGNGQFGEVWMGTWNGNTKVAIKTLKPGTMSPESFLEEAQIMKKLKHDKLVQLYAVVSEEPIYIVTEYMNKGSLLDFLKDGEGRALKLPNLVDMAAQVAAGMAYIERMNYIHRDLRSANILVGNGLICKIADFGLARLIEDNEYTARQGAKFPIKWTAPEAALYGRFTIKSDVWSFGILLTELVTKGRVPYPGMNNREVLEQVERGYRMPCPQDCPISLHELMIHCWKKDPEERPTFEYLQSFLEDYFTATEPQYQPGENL

In the assay the target is full-length recombinant human FYN A (Homo sapiens (Human), UniProt P06241). Nature of the assay: ADP-Glo Kinase Assay of FYN kinase inhibition. To be noted: primary screen, initial compounds. The assay is classed as biochemical. In short, it runs like this:
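ADP-Glo read-out of peptide phosphorylation after 90 min RT with 12.5 pmol ATP and 100 pg 12-mer substrate. Enzyme was N-GST full-length human FYN A from insect cells, 3 pg, pre-incubated 30 min with compound, 10 points from 10 μM top, 3-fold steps; IC50 from curve.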
(In general: ADP-Glo turns the ADP formed in a reaction into a luminescent signal.)
Regarding `COc1cc(-c2ccc3ncc(-c4ccc(CO)cc4)n3n2)ccc1O` [Compound 299, 4-[3-[4-(hydroxymethyl)phenyl]imidazo [1,2-b]pyridazin-6-yl]-2-methoxy-phenol], the IC50 amounted to 223 nM. As for `COc1ccc(-c2cc(=O)c3cc(O)ccc3o2)cc1OC` [Compound 300, 2-(3,4-dimethoxy-phenyl)-6-hydroxy-chromen-4-one], the figure is 8950 nM; as for `OCc1cccc(-c2cnc3ccc(-c4cccnc4)nn23)c1` [Compound 301, [3-[6-(3-pyridyl)imidazo [1,2-b]pyridazin-3-yl]phenyl] methanol], 2040 nM.

In the case of `OCc1cccc(-c2cnc3ccc(Cc4ccc(F)cc4)nn23)c1` [Compound 302, [3-[6-[(4-fluorophenyl)methyl]imidazo [1,2-b]pyridazin-3-yl]phenyl] methanol], the 50% inhibitory concentration (IC50) turned out to be 3970 nM. As for `COc1cccc(-c2ccc3ncc(-c4cccc(CO)c4)n3n2)c1` [Compound 303, [3-[6-(3-methoxyphenyl)imidazo[1,2-b]pyridazin-3-yl]phenyl] methanol], the figure is 2740 nM; as for `CS(=O)(=O)Nc1cccc(-c2ccc3ncc(-c4ccncc4)n3n2)c1` [Compound 304, N-[3-[3-(4-pyridyl)imidazo [1,2-b]pyridazin-6-yl]phenyl] methane-sulfonamide], 298 nM; as for `CN1CCN(c2ccc(Nc3cc4c(cn3)cc(-c3cccnc3)n4Cc3ccccc3)cc2)CC1` [Compound 305, 1-benzyl-N-[4-(4-methyl-piperazin-1-yl)phenyl]-2-(3-pyridyl)pyrrolo [3,2-c]pyridin-6-amine], 13700 nM. In the case of `c1ccc(Nc2cc3[nH]c(-c4cn[nH]c4)cc3cn2)nc1` [Compound 306, 2-(1H-pyrazol-4-yl)-N-(2-pyridyl)-1H-pyrrolo[3,2-c]pyridin-6-amine], the IC50 amounted to 7570 nM. Take `CS(=O)(=O)c1ccc(Nc2cc3[nH]c(-c4cn[nH]c4)cc3cn2)cc1` [Compound 307, N-(4-methyl-sulfonylphenyl)-2-(1H-pyrazol-4-yl)-1H-pyrrolo[3,2-c]pyridin-6-amine]: the concentration for half-maximal inhibition (IC50) was found to be 4780 nM. With `c1ccc(Cn2c(-c3cccnc3)cc3cnc(Nc4ccncn4)cc32)cc1` [Compound 308, 1-benzyl-2-(3-pyridyl)-N-pyrimidin-4-yl-pyrrolo[3,2-c]pyridin-6-amine] the figure was 6850 nM; with `COc1cccc(Nc2cc3[nH]c(-c4cn[nH]c4)cc3cn2)c1` [Compound 309, N-(3-methoxyphenyl)-2-(1H-pyrazol-4-yl)-1H-pyrrolo[3,2-c]pyridin-6-amine], 16600 nM.

`COc1ccc(Nc2cc3[nH]c(-c4cn[nH]c4)cc3cn2)cc1OC` [Compound 310, N-(3,4-dimethoxy-phenyl)-2-(1H-pyrazol-4-yl)-1H-pyrrolo[3,2-2]pyridin-6-amine]: the 50% inhibitory concentration (IC50) came out at 12700 nM. For `CN1CCN(c2ccc(Nc3cc4c(cn3)cc(-c3ccccc3)n4Cc3ccccc3)cc2)CC1` [Compound 311, 1-benzyl-N-[4-(4-methylpiperazin-1-yl)phenyl]-2-phenyl-pyrrolo[3,2-c]pyridin-6-amine], the IC50 came to 15000 nM.

With `COc1ccccc1-c1ccc2ncc(-c3ccncc3)n2n1` [Compound 312, 6-(2-methoxyphenyl)-3-(4-pyridyl)imidazo [1,2-b]pyridazine], the IC50 worked out at 585 nM. With `NC(=O)c1cccc(-c2ccc3ncc(-c4ccncc4)n3n2)c1` [Compound 313, 3-[3-(4-pyridyl)imidazo [1,2-b]pyridazin-6-yl]benzamide] the figure was 1200 nM. In the case of `CC(=O)Nc1cccc(-c2cnc3ccc(-c4ccccc4)nn23)c1` [Compound 314, N-[3-(6-phenylimidazo [1,2-b]pyridazin-3-yl)phenyl] acetamide], the IC50 was 773 nM.

As for `CC(=O)Nc1cccc(-c2cnc3ccc(-c4cccc(O)c4)nn23)c1` [Compound 315, N-[3-[6-(3-hydroxyphenyl)imidazo[1,2-b]pyridazin-3-yl]phenyl] acetamide], the IC50 was 1070 nM. With `COc1ccc(-c2cnc3ccc(-c4cccc(F)c4)nn23)cc1OC` [Compound 316, 3-(3,4-dimethoxy-phenyl)-6-(3-fluorophenyl) imidazo[1,2-b]pyridazine] the figure was 1040 nM. Take `CC(=O)Nc1cccc(-c2cnc3ccc(-c4ccc(CO)cc4)nn23)c1` [Compound 317, N-[3-[6-[4-(hydroxymethyl)phenyl]imidazo [1,2-b]pyridazin-3-yl]phenyl] acetamide]: the IC50 was 494 nM. Take `OCc1cccc(-c2cnc3ccc(-c4ccccc4)nn23)c1` [Compound 318, [3-(6-phenylimidazo [1,2-b]pyridazin-3-yl)phenyl] methanol]: the IC50 was 1750 nM. As for `Clc1cccc(-c2ccc3ncc(-c4ccncc4)n3n2)c1` [Compound 319, 6-(3-chlorophenyl)-3-(4-pyridyl)imidazo [1,2-b]pyridazine], the figure is 258 nM; as for `COc1cc(-c2ccc3ncc(-c4ccc(OC)c(OC)c4)n3n2)ccc1O` [Compound 320, 4-[3-(3,4-dimethoxy-phenyl)imidazo [1,2-b]pyridazin-6-yl]-2-methoxy-phenol], 222 nM. As for `COc1ccccc1-c1ccc2ncc(-c3cccc(NC(C)=O)c3)n2n1` [Compound 321, N-[3-[6-(2-methoxyphenyl)imidazo[1,2-b]pyridazin-3-yl]phenyl] acetamide], the figure is 2850 nM; as for `CC(=O)Nc1cccc(-c2cnc3ccc(-c4cccc(C(F)(F)F)c4)nn23)c1` [Compound 322, N-[3-[6-[3-(trifluoromethyl)phenyl]imidazo [1,2-b]pyridazin-3-yl]phenyl] acetamide], 1600 nM.

Consider `COc1ccccc1-c1ccc2ncc(-c3cccc(CO)c3)n2n1` [Compound 323, [3-[6-(2-methoxyphenyl)imidazo[1,2-b]pyridazin-3-yl]phenyl] methanol], for which the IC50 was 1070 nM. `COc1cc(-c2ccc3ncc(-c4cccc(CO)c4)n3n2)ccc1O` [Compound 324, 4-[3-[3-(hydroxymethyl)phenyl]imidazo [1,2-b]pyridazin-6-yl]-2-methoxy-phenol]: the concentration for half-maximal inhibition (IC50) was found to be 153 nM. Take `c1ccc(-c2cnc3ccc(-c4ccncc4)nn23)cc1` [Compound 325, 3-phenyl-6-(4-pyridyl)imidazo [1,2-b]pyridazine]: the IC50 was 6930 nM.

`Oc1cccc(-c2ccc3ncc(-c4ccncc4)n3n2)c1` [Compound 326, 3-[3-(4-pyridyl)imidazo [1,2-b]pyridazin-6-yl]phenol]: the 50% inhibitory concentration (IC50) is 223 nM.

`COc1ccc(-c2cnc3ccc(-c4ccccc4)nn23)cc1OC` [Compound 327, 3-(3,4-dimethoxy-phenyl)-6-phenyl-imidazo[1,2-b]pyridazine]: the IC50 is 420 nM. With `COc1ccc(-c2cnc3ccc(-c4ccc(F)cc4)nn23)cc1OC` [Compound 328, 3-(3,4-dimethoxy-phenyl)-6-(4-fluorophenyl) imidazo[1,2-b]pyridazine] the figure was 1330 nM. As for `COc1cc(-c2ccc3ncc(-c4cccc(NC(C)=O)c4)n3n2)cc(OC)c1OC` [Compound 329, N-[3-[6-(3,4,5-trimethoxyphenyl)imidazo[1,2-b]pyridazin-3-yl]phenyl] acetamide], the figure is 3130 nM. With `COc1cc(-c2ccc3ncc(-c4cccc(NC(C)=O)c4)n3n2)ccc1O` [Compound 330, N-[3-[6-(4-hydroxy-3-methoxy-phenyl)imidazo [1,2-b]pyridazin-3-yl]phenyl] acetamide] the figure was 93 nM.

Take `c1ccc(-c2cnc3ccc(-c4cccnc4)nn23)cc1` [Compound 331, 3-phenyl-6-(3-pyridyl)imidazo [1,2-b]pyridazine]: the IC50 is 3840 nM.

`OCc1ccc(-c2ccc3ncc(-c4ccncc4)n3n2)cc1` [Compound 332]: the IC50 is 255 nM. Regarding `COc1ccc(-c2cnc3ccc(-c4ccccc4OC)nn23)cc1OC` [Compound 333, 3-(3,4-dimethoxy-phenyl)-6-(2-methoxyphenyl) imidazo[1,2-b]pyridazine], the IC50 was 3120 nM. With `COc1ccc(-c2cnc3ccc(-c4ccoc4)nn23)cc1OC` [Compound 334, 3-(3,4-dimethoxy-phenyl)-6-(3-furyl)imidazo [1,2-b]pyridazine], the IC50 stood at 983 nM.

As for `CC(=O)Nc1cccc(-c2cnc3ccc(-c4ccoc4)nn23)c1` [Compound 335, N-[3-[6-(3-furyl)imidazo [1,2-b]pyridazin-3-yl]phenyl] acetamide], the IC50 was determined as 1260 nM. Turning to `OCc1cccc(-c2cnc3ccc(-c4ccoc4)nn23)c1` [Compound 336, [3-[6-(3-furyl)imidazo [1,2-b]pyridazin-3-yl]phenyl] methanol], the IC50 worked out at 3990 nM. With `CN(C)c1ccc(-c2ccc3ncc(-c4ccncc4)n3n2)cc1` [Compound 337, N,N-dimethyl-4-[3-(4-pyridyl)imidazo[1,2-b]pyridazin-6-yl]aniline] the figure was 398 nM; with `CS(=O)(=O)c1ccc(-c2ccc3ncc(-c4cccc(CO)c4)n3n2)cc1` [Compound 338, [3-[6-(4-methylsulfonyl-phenyl)imidazo [1,2-b]pyridazin-3-yl]phenyl] methanol], 3040 nM; with `CC(=O)Nc1cccc(-c2ccc3ncc(-c4ccccc4)n3n2)c1` [Compound 339, N-[3-(3-phenylimidazo [1,2-b]pyridazin-6-yl)phenyl] acetamide], 3660 nM. For `c1ccc(-c2ccc3ncc(-c4ccncc4)n3n2)cc1` [Compound 340, 6-phenyl-3-(4-pyridyl)imidazo [1,2-b]pyridazine], the IC50 worked out at 229 nM. As to `Fc1cccc(-c2ccc3ncc(-c4ccncc4)n3n2)c1` [Compound 341, 6-(3-fluorophenyl)-3-(4-pyridyl) imidazo[1,2-b]pyridazine], the IC50 was determined as 356 nM. As for `COc1cccc(-c2ccc3ncc(-c4ccc(OC)c(OC)c4)n3n2)c1` [Compound 342, 3-(3,4-dimethoxy-phenyl)-6-(3-methoxyphenyl) imidazo[1,2-b]pyridazine], the figure is 952 nM.

A word on the IC50: it is the concentration that inhibits the measured activity by half.
